The supplement of paper PMC10307832

What was measured:
Test in all cases: relative viability (nuclei count vs DMSO), 5 days (fraction); higher = more cells survive
YM155 + Vorinostat = compound: COCC[n+]1c2c(n(Cc3cnccn3)c1C)C(=O)c1ccccc1C2=O [YM155] + O=C(CCCCCCC(=O)Nc1ccccc1)NO [Vorinostat] (partner 1 µM)
Summary of the method: (§1)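 Dosing by pin tool came one day after lung cancer cell lines were seeded in 1536-well plates, using either one drug or a fixed anchor-drug dose plus five library-drug doses (not always all listed) in √10 steps. After 5 days, nuclei were counted on 4× images. Relative viability is treated-well nuclei count divided by vehicle-well nuclei count, and values are medians of duplicate plates.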

YM155 + Dasatinib = compound: COCC[n+]1c2c(n(Cc3cnccn3)c1C)C(=O)c1ccccc1C2=O [YM155] + Cc1nc(Nc2ncc(C(=O)Nc3c(C)cccc3Cl)s2)cc(N2CCN(CCO)CC2)n1 [Dasatinib] (partner 0.075 µM)
Summary of the method: as §1

YM155 + Decitabine = compound: COCC[n+]1c2c(n(Cc3cnccn3)c1C)C(=O)c1ccccc1C2=O [YM155] + Nc1ncn([C@H]2C[C@H](O)[C@@H](CO)O2)c(=O)n1 [Decitabine] (partner 2 µM)
Summary of the method: as §1

Quizartinib + Vorinostat = compound: CC(C)(C)c1cc(NC(=O)Nc2ccc(-c3cn4c(n3)sc3cc(OCCN5CCOCC5)ccc34)cc2)no1 [Quizartinib] + O=C(CCCCCCC(=O)Nc1ccccc1)NO [Vorinostat] (partner 1 µM)
Summary of the method: as §1

| Cell Line | relative viability (YM155 + Vorinostat; first compound 0.002 µM) | relative viability (YM155 + Vorinostat; first compound 0.006325 µM) | relative viability (YM155 + Vorinostat; first compound 0.02 µM) | relative viability (YM155 + Vorinostat; first compound 0.06325 µM) | relative viability (YM155 + Dasatinib; first compound 0.002 µM) | relative viability (YM155 + Dasatinib; first compound 0.006325 µM) | relative viability (YM155 + Dasatinib; first compound 0.02 µM) | relative viability (YM155 + Dasatinib; first compound 0.06325 µM) | relative viability (YM155 + Decitabine; first compound 0.002 µM) | relative viability (YM155 + Decitabine; first compound 0.006325 µM) | relative viability (YM155 + Decitabine; first compound 0.02 µM) | relative viability (YM155 + Decitabine; first compound 0.06325 µM) | relative viability (Quizartinib + Vorinostat; first compound 0.001 µM) | relative viability (Quizartinib + Vorinostat; first compound 0.003162 µM) | relative viability (Quizartinib + Vorinostat; first compound 0.01 µM) | relative viability (Quizartinib + Vorinostat; first compound 0.03162 µM) | relative viability (Quizartinib + Vorinostat; first compound 0.1 µM) |
| --- | --- | --- | --- | --- | --- | --- | --- | --- | --- | --- | --- | --- | --- | --- | --- | --- | --- |
| 201T | 0.931 | 0.96 | 0.982 | 0.961 | 0.562 | 0.616 | 0.558 | 0.609 | 0.825 | 0.838 | 0.851 | 0.88 | 1 | 0.982 | 0.963 | 0.965 | 0.992 |
| A549 |  |  |  |  |  |  |  |  | 0.413 | 0.215 | 0.29 | 0.24 |  |  |  |  |  |
| A-427 | 0.812 | 0.849 | 0.838 | 0.629 | 0.688 | 0.734 | 0.839 | 0.818 | 0.525 | 0.567 | 0.571 | 0.466 | 0.609 | 0.757 | 0.818 | 0.767 | 0.874 |
| ABC-1 |  | 1.03 | 0.373 | 0.303 | 0.48 | 0.374 | 0.197 | 0.26 |  | 0.84 | 0.383 | 0.308 |  | 1.24 | 0.963 | 0.793 | 1.65 |
| BEN | 0.516 | 0.511 | 0.619 | 0.679 | 0.331 | 0.269 | 0.36 | 0.348 | 0.684 | 0.712 | 0.718 | 0.741 | 0.533 | 0.532 | 0.565 | 0.56 | 0.602 |
| CAL-12T | 0.624 | 0.723 | 0.623 | 0.412 | 0.255 | 0.615 | 0.602 | 0.393 |  |  |  |  | 0.684 | 0.711 | 0.914 | 0.511 | 0.943 |
| COR-L23 | 0.434 | 0.501 | 0.274 | 0.125 | 0.503 | 0.463 | 0.367 | 0.221 | 0.439 | 0.315 | 0.317 | 0.169 | 0.387 | 0.355 | 0.507 | 0.385 | 0.504 |
| COR-L 105 | 0.77 | 0.875 | 0.905 | 0.541 | 0.284 | 0.333 | 0.312 | 0.283 | 0.552 | 0.671 | 0.519 | 0.442 | 0.266 | 0.793 | 0.871 |  | 0.881 |
| ChaGo-K-1 | 0.772 | 0.744 | 0.787 | 0.747 | 0.463 | 0.503 | 0.582 | 0.629 | 0.473 | 0.563 | 0.515 | 0.545 |  | 0.709 | 0.758 | 0.719 | 0.773 |
| EKVX | 0.767 | 0.793 | 0.671 | 0.725 | 0.647 | 0.539 | 0.491 | 0.62 | 0.332 | 0.389 | 0.312 | 0.228 |  | 0.815 | 0.631 | 0.69 | 0.634 |
| EMC-BAC-2 | 0.428 | 0.452 | 0.606 | 0.256 | 0.327 | 0.355 | 0.325 | 0.338 | 1.01 | 1.05 | 0.948 | 0.651 | 0.433 | 0.486 | 0.288 |  | 0.544 |
| EPLC-272H | 0.443 | 0.384 | 0.357 | 0.55 | 0.358 | 0.371 | 0.396 | 0.365 | 0.322 | 0.33 | 0.352 | 0.365 | 0.427 | 0.337 | 0.484 | 0.58 | 0.692 |
| H3255 | 0.729 | 0.78 | 0.776 | 0.671 | 0.379 | 0.339 | 0.534 | 0.405 | 0.533 | 0.645 | 0.622 | 0.558 |  | 0.744 | 0.732 | 0.808 | 0.836 |
| HARA | 0.578 | 0.462 | 0.547 | 0.606 | 0.161 | 0.278 | 0.298 | 0.292 |  | 0.566 | 0.578 | 0.57 | 0.468 | 0.47 | 0.553 | 0.677 | 0.426 |
| HCC-15 | 0.851 | 0.836 | 0.872 | 0.881 | 0.663 | 0.56 | 0.593 | 0.507 | 0.634 | 0.627 | 0.704 | 0.658 | 0.747 | 0.799 | 0.882 | 0.823 | 0.832 |
| HCC-44 | 1.01 | 1.11 | 1.12 | 1.1 |  |  |  |  | 0.936 | 1 | 0.929 | 0.964 | 1.23 | 1.09 | 1.13 | 1.21 | 1.11 |
| HCC-78 | 0.469 | 0.458 | 0.429 | 0.472 | 0.313 | 0.487 | 0.477 | 0.47 | 0.647 | 0.751 | 0.739 | 0.741 | 0.453 | 0.44 | 0.445 | 0.419 | 0.445 |
| HCC-366 | 0.321 | 0.393 | 0.469 | 0.279 | 0.578 | 0.653 | 0.685 | 0.581 | 0.358 | 0.366 | 0.345 | 0.316 | 0.307 | 0.381 | 0.302 | 0.243 | 0.386 |
| HCC-827 | 0.875 | 0.961 | 0.835 | 0.835 | 0.337 | 0.262 | 0.308 | 0.345 | 0.352 | 0.408 | 0.299 | 0.354 | 0.797 | 0.881 |  | 0.724 | 0.886 |
| HOP-62 | 0.516 | 0.595 | 0.727 | 0.577 | 0.673 | 0.64 | 0.706 | 0.646 | 0.221 | 0.242 | 0.235 | 0.214 | 0.456 | 0.429 | 0.577 | 0.566 | 0.619 |
| IA-LM | 0.863 | 0.932 | 0.942 | 0.97 |  |  |  |  |  |  |  |  | 0.71 | 0.811 |  | 0.874 | 0.955 |
